Experimental data published in ChEMBL document CHEMBL3885861, “Open TG-GATES”.

Organism: Rattus norvegicus
Test: Open TG-GATES - Regimen: Single
Type: toxicity, organism-based, Sprague-Dawley
Design: regimen Single, gender Male, age 6 weeks
Conditions: in vivo, po, 300 mg/kg, route gavage, dose level Middle; for APTT / Bas / Eos / Fbg / Hb / Ht / Lym / MCH / MCHC / MCV / Mono / Neu / PT / Plat / RBC / Ret / WBC: tissue Blood; for KIDNEY_L / KIDNEY_R / KIDNEY_TOTAL: tissue Kidney; for LIVER: tissue Liver; for A/G / ALP / ALT / AST / BUN / CRE / Ca / Cl / DBIL / GLC / IP / K / LDH / Na / PL / RALB / TBIL / TC / TG / TP / gamma-GTP: tissue Plasma

C[C@H]1O[C@H](O[C@H]2[C@H](O)[C@@H](O)[C@@H](O[C@H]3[C@H](O)[C@@H](O)C(O)O[C@@H]3CO)O[C@@H]2CO)[C@H](O)[C@@H](O)[C@@H]1N[C@H]1C=C(CO)[C@@H](O)[C@H](O)[C@H]1O (some centres not stated) [ACARBOSE]
TERMINAL_BW (3 h): 199.8 g | APTT (3 h): 16.9 s | Bas (3 h): 0% | Eos (3 h): 0.8% | Fbg (3 h): 290.6 mg/dL | Hb (3 h): 13.5 g/dL | Ht (3 h): 41.4% | Lym (3 h): 77.8% | MCH (3 h): 21.2 pg | MCHC (3 h): 32.6% | MCV (3 h): 65.1 fL | Mono (3 h): 2.8% | Neu (3 h): 17.8% | PT (3 h): 13.4 s | Plat (3 h): 115.1 x10_4/uL | RBC (3 h): 636 x10_4/ul | Ret (3 h): 8.7% | WBC (3 h): 82.6 x10_2/uL | KIDNEY_L (3 h): 0.9 g | KIDNEY_R (3 h): 0.9 g | KIDNEY_TOTAL (3 h): 1.9 g | LIVER (3 h): 9 g | A/G (3 h): 0.9 | ALP (3 h): 1420.8 IU/L | ALT (3 h): 35.6 IU/L | AST (3 h): 75.4 IU/L | BUN (3 h): 9.8 mg/dL | CRE (3 h): 0.2 mg/dL | Ca (3 h): 10.9 mg/dL | Cl (3 h): 104.6 meq/L | DBIL (3 h): 0.004 mg/dL | GLC (3 h): 172.4 mg/dL | IP (3 h): 10 mg/dL | K (3 h): 4 meq/L | LDH (3 h): 67.8 IU/L | Na (3 h): 141.2 meq/L | PL (3 h): 140 mg/dL | RALB (3 h): 2.5 g/dL | TBIL (3 h): 0.066 mg/dL | TC (3 h): 79.8 mg/dL | TG (3 h): 51.6 mg/dL | TP (3 h): 5.2 g/dL | gamma-GTP (3 h): 1.2 IU/L | TERMINAL_BW (6 h): 198.7 g | APTT (6 h): 17 s | Bas (6 h): 0% | Eos (6 h): 0.8% | Fbg (6 h): 290.6 mg/dL | Hb (6 h): 13.2 g/dL | Ht (6 h): 40.6% | Lym (6 h): 75.8% | MCH (6 h): 20.8 pg | MCHC (6 h): 32.4% | MCV (6 h): 64 fL | Mono (6 h): 3% | Neu (6 h): 19.6% | PT (6 h): 13.5 s | Plat (6 h): 124.8 x10_4/uL | RBC (6 h): 635 x10_4/ul | Ret (6 h): 8.7% | WBC (6 h): 86.3 x10_2/uL | KIDNEY_L (6 h): 0.9 g | KIDNEY_R (6 h): 0.9 g | KIDNEY_TOTAL (6 h): 1.8 g | LIVER (6 h): 8.2 g | A/G (6 h): 0.9 | ALP (6 h): 1441 IU/L | ALT (6 h): 35 IU/L | AST (6 h): 70 IU/L | BUN (6 h): 9.6 mg/dL | CRE (6 h): 0.2 mg/dL | Ca (6 h): 10.8 mg/dL | Cl (6 h): 104 meq/L | DBIL (6 h): 0.004 mg/dL | GLC (6 h): 160.4 mg/dL | IP (6 h): 10.5 mg/dL | K (6 h): 4 meq/L | LDH (6 h): 57 IU/L | Na (6 h): 141.4 meq/L | PL (6 h): 133.6 mg/dL | RALB (6 h): 2.5 g/dL | TBIL (6 h): 0.058 mg/dL | TC (6 h): 71 mg/dL | TG (6 h): 38.6 mg/dL | TP (6 h): 5.2 g/dL | gamma-GTP (6 h): 1 IU/L | TERMINAL_BW (9 h): 195.2 g | APTT (9 h): 17 s | Bas (9 h): 0.4% | Eos (9 h): 0.8% | Fbg (9 h): 292.8 mg/dL | Hb (9 h): 13.5 g/dL | Ht (9 h): 42% | Lym (9 h): 80.4% | MCH (9 h): 20.7 pg | MCHC (9 h): 32% | MCV (9 h): 64.8 fL | Mono (9 h): 2.2% | Neu (9 h): 15.6% | PT (9 h): 13.4 s | Plat (9 h): 119.8 x10_4/uL | RBC (9 h): 650.2 x10_4/ul | Ret (9 h): 8.7% | WBC (9 h): 84.7 x10_2/uL | KIDNEY_L (9 h): 1 g | KIDNEY_R (9 h): 0.9 g | KIDNEY_TOTAL (9 h): 1.9 g | LIVER (9 h): 7.7 g | A/G (9 h): 0.9 | ALP (9 h): 1353.2 IU/L | ALT (9 h): 36.8 IU/L | AST (9 h): 76 IU/L | BUN (9 h): 8.6 mg/dL | CRE (9 h): 0.2 mg/dL | Ca (9 h): 10.3 mg/dL | Cl (9 h): 105.4 meq/L | DBIL (9 h): 0 mg/dL | GLC (9 h): 169.8 mg/dL | IP (9 h): 10.7 mg/dL | K (9 h): 3.8 meq/L | LDH (9 h): 61 IU/L | Na (9 h): 141.4 meq/L | PL (9 h): 131.4 mg/dL | RALB (9 h): 2.4 g/dL | TBIL (9 h): 0.06 mg/dL | TC (9 h): 77 mg/dL | TG (9 h): 36.2 mg/dL | TP (9 h): 5.2 g/dL | gamma-GTP (9 h): 1.2 IU/L | TERMINAL_BW (24 h): 210.8 g | APTT (24 h): 17.1 s | Bas (24 h): 0% | Eos (24 h): 1% | Fbg (24 h): 248.4 mg/dL | Hb (24 h): 13.1 g/dL | Ht (24 h): 40.2% | Lym (24 h): 76% | MCH (24 h): 21.3 pg | MCHC (24 h): 32.6% | MCV (24 h): 65.2 fL | Mono (24 h): 3.4% | Neu (24 h): 18.8% | PT (24 h): 13.3 s | Plat (24 h): 121 x10_4/uL | RBC (24 h): 617.4 x10_4/ul | Ret (24 h): 7.8% | WBC (24 h): 102.2 x10_2/uL | KIDNEY_L (24 h): 0.9 g | KIDNEY_R (24 h): 0.9 g | KIDNEY_TOTAL (24 h): 1.8 g | LIVER (24 h): 9.9 g | A/G (24 h): 0.9 | ALP (24 h): 1736 IU/L | ALT (24 h): 42.2 IU/L | AST (24 h): 71.8 IU/L | BUN (24 h): 13.4 mg/dL | CRE (24 h): 0.2 mg/dL | Ca (24 h): 10.9 mg/dL | Cl (24 h): 104.8 meq/L | DBIL (24 h): 0.012 mg/dL | GLC (24 h): 176.4 mg/dL | IP (24 h): 8 mg/dL | K (24 h): 3.9 meq/L | LDH (24 h): 60.6 IU/L | Na (24 h): 142.6 meq/L | PL (24 h): 134.8 mg/dL | RALB (24 h): 2.6 g/dL | TBIL (24 h): 0.062 mg/dL | TC (24 h): 71.2 mg/dL | TG (24 h): 74 mg/dL | TP (24 h): 5.4 g/dL | gamma-GTP (24 h): 1 IU/L
